Reference: paper PMC5418449, “Characterisation of CCT271850, a selective, oral and potent MPS1 inhibitor, used to directly measure in vivo MPS1 inhibition vs therapeutic efficacy” (British Journal of Cancer, 2017)
pIC50: −log10 of the molar value.

Columns and labels:
Set-up in all cases: 14-day clonogenic growth inhibition assay, human cancer cell line panel
Conditions in all cases: 14-day clonogenic assay; inhibitor; read-out: Table S1. IC50 of CCT271850 determined by MTT and clonogenic assays (CA). / All cell lines were tested at least 2 times. / 14-day CA
005B = system: 005B
Experimental: (§1) To evaluate CCT271850 antiproliferation effects in a large panel of human cancer cell lines, 91 cell lines were treated for 72 h and 14 days at different compound concentrations in growth inhibition assays. The growth inhibition values as measured by IC50 are summarised in Table 2 and Supplementary Table S1. […] Cell lines from colon and head and neck cancers were among the most sensitive.

011A = system: 011A
Experimental: as §1

011B = system: 011B
Experimental: as §1

015B = system: 015B
Experimental: as §1

A2780 = system: A2780
Experimental: as §1

CAL27 = system: CAL27
Experimental: as §1

CFPAC-1 = system: CFPAC-1
Experimental: as §1

CaoV3 = system: CaoV3
Experimental: as §1

Det562 = system: Det562
Experimental: as §1

EF021 = system: EF021
Experimental: as §1

EF027 = system: EF027
Experimental: as §1

HN3 = system: HN3
Experimental: as §1

IGROV1 = system: IGROV1
Experimental: as §1

KGN = system: KGN
Experimental: as §1

Kuramochi = system: Kuramochi
Experimental: as §1

Lon-HN5 = system: Lon-HN5
Experimental: as §1

Miapaca-2 = system: Miapaca-2
Experimental: as §1

O13 = system: O13
Experimental: as §1

OAW28 = system: OAW28
Experimental: as §1

OAW42 = system: OAW42
Experimental: as §1

OVCAR3 = system: OVCAR3
Experimental: as §1

OVCAR4 = system: OVCAR4
Experimental: as §1

OVCAR5 = system: OVCAR5
Experimental: as §1

PANC-1 = system: PANC-1
Experimental: as §1

PATU-8902 = system: PATU-8902
Experimental: as §1

PATU-8988S = system: PATU-8988S
Experimental: as §1

PATU-8988T = system: PATU-8988T
Experimental: as §1

PJ34 = system: PJ34
Experimental: as §1

PJ41 = system: PJ41
Experimental: as §1

PT45 = system: PT45
Experimental: as §1

RMG1 = system: RMG1
Experimental: as §1

SKOV3 = system: SKOV3
Experimental: as §1

SMOV2 = system: SMOV2
Experimental: as §1

SW626 = system: SW626
Experimental: as §1

Suit-2 = system: Suit-2
Experimental: as §1

TOV21G = system: TOV21G
Experimental: as §1

TYK-Nu = system: TYK-Nu
Experimental: as §1

COc1cc(-c2cnn(C)c2)ccc1Nc1ncc2ccnc(N[C@@H](C)C(C)(C)C)c2n1 [34h, CCT271850]
pIC50 (005B): 7.35
pIC50 (011A): 7.70
pIC50 (011B): 7.68
pIC50 (015B): 7.23
pIC50 (A2780): 6.98
pIC50 (CAL27): 8.40
pIC50 (CFPAC-1): 7.20
pIC50 (CaoV3): 7.12
pIC50 (Det562): 7.34
pIC50 (EF021): 7.14
pIC50 (EF027): 7.43
pIC50 (HN3): 8.28
pIC50 (IGROV1): 7.32
pIC50 (KGN): 6.97
pIC50 (Kuramochi): 7.47
pIC50 (Lon-HN5): 7.36
pIC50 (Miapaca-2): 7.17
pIC50 (O13): 7.68
pIC50 (OAW28): 7.21
pIC50 (OAW42): 7.24
pIC50 (OVCAR3): 7.00
pIC50 (OVCAR4): 7.21
pIC50 (OVCAR5): 7.09
pIC50 (PANC-1): 7.13
pIC50 (PATU-8902): 7.55
pIC50 (PATU-8988S): 6.96
pIC50 (PATU-8988T): 7.06
pIC50 (PJ34): 7.46
pIC50 (PJ41): 9.10
pIC50 (PT45): 7.23
pIC50 (RMG1): 7.38
pIC50 (SKOV3): 7.24
pIC50 (SMOV2): 7.85
pIC50 (SW626): 7.49
pIC50 (Suit-2): 7.06
pIC50 (TOV21G): 8.11
pIC50 (TYK-Nu): 7.14
